Measured values: ChEMBL document CHEMBL5136992, “Fascinating Transformation of SAM-Competitive Protein Methyltransferase Inhibitors from Nucleoside Analogues to Non-Nucleoside Analogues” (J Med Chem, 2022)
Blank lines part the entries; values can stand above or below the molecule they belong to.

Columns and labels:
[1] = Microsomal stability in rat liver microsomes assessed as remaining compound after 1 hr incubation; format: ADME, Microsome; conditions: read-out: Stability
[2] = target: T1, Histone-lysine N-methyltransferase SMYD3 (Homo sapiens, UniProt Q9H7B4); test: Inhibition of SMYD3 (unknown origin)
T1 sequence (Q9H7B4 whole entry): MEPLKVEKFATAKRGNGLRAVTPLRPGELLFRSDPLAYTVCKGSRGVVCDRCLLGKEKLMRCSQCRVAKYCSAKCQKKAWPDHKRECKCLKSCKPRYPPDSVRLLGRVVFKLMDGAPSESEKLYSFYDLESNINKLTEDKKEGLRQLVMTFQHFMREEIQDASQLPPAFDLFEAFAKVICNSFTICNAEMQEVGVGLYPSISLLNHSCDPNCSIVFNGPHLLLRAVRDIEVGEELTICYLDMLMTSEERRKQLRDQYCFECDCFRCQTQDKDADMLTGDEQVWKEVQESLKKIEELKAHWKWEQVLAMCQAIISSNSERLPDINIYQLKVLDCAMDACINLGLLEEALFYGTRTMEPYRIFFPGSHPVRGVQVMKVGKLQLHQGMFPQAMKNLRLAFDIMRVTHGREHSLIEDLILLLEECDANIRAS

[3] = target: T2, Protein arginine N-methyltransferase 7 (Homo sapiens, UniProt Q9NVM4); test: Inhibition of PRMT7 (unknown origin)
T2 sequence (Q9NVM4 whole entry): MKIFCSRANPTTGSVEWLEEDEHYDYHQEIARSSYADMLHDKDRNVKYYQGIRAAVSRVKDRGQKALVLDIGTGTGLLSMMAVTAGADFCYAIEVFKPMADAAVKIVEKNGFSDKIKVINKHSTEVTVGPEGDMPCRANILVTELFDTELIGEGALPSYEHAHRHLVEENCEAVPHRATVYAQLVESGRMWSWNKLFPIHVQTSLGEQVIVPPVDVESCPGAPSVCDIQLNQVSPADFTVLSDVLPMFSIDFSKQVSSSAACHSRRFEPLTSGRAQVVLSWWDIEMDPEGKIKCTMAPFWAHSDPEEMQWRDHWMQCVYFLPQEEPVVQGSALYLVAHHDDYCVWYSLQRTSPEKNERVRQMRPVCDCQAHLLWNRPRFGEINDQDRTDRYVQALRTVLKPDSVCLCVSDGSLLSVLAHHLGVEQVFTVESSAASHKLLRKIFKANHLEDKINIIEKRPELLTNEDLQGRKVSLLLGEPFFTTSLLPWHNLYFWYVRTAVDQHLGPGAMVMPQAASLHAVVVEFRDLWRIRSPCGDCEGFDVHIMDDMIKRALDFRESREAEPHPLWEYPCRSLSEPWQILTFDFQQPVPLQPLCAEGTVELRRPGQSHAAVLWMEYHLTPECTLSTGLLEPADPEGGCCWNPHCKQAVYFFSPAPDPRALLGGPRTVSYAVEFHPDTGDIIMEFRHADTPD

[4] = target: Protein arginine N-methyltransferase 5 (Homo sapiens, UniProt O14744); test: Binding affinity to PRMT5 (unknown origin) assessed as inhibition constant
Protein arginine N-methyltransferase 5, sequence (O14744 whole entry): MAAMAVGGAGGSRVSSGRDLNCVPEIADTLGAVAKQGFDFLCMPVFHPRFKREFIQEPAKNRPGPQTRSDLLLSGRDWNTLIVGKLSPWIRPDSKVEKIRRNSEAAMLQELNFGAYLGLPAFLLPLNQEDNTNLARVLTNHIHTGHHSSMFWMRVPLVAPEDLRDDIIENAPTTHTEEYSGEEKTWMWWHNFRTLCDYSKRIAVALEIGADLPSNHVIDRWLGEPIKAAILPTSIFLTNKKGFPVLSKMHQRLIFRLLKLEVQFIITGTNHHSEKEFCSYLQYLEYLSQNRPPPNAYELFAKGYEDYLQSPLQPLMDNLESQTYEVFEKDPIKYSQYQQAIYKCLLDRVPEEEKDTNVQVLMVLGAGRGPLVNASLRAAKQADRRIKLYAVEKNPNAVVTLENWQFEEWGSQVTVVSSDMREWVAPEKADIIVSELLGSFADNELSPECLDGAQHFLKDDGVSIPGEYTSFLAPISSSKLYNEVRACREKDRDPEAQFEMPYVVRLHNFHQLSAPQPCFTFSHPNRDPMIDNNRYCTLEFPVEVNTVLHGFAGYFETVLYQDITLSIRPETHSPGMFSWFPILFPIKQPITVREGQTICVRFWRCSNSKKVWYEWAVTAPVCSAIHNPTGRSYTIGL

- remaining at 1 h [1]: 24%
Compound: COc1cccc(CCNC(=O)[C@H](CC[C@@H](CNCc2ccccc2)C[C@H]2O[C@@H](n3cnc4c(N)ncnc43)[C@H](O)[C@@H]2O)NC(=O)CC(C)(C)C2=C(C)C(=O)C(C)=C(C)C2=O)c1

- IC50 [2]: 130 nM
Compound: CN(C)CCCN(CC[C@H](N)C(=O)O)C[C@@H]1O[C@H](n2cnc3c(N)ncnc32)[C@@H](O)[C@H]1O

- IC50 [3]: < 2.5 nM
Compound: Nc1ncnc2c1ncn2[C@@H]1O[C@H](CSCCCCNCc2cccc(-c3ccc(Cl)cc3)c2)[C@@H](O)[C@H]1O

- Ki [4]: 0.02 nM
Compound: Nc1ncnc2c1ccn2[C@H]1O[C@@H]([C@H](O)c2ccc(Cl)c(F)c2)[C@H](O)[C@@H]1O
